Molecules are shown by their SMILES.

One assay concerns leukemia cell lines. The assay can be described thus: Resazurin cell viability assay on leukemia cell lines (72 h growth inhibition, GI50). It counts as cell-based. The settings on record: Homo sapiens, MV4-11 cells. An outline of the steps: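 Standard published viability protocols apply here, MTT-based for solid tumour cells and resazurin-based for leukaemia cells, with 50% growth inhibition concentrations derived through non-linear regression.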

Assay [1] concerns the target T1, CDKs and other kinases (Homo sapiens, UniProt P06493).
T1 construct: other: CDK1B; residual activity (%) at 10 μM CDK1B; compound at 10 μM
Nature of the assay: Radiometric kinase assay (Eurofins Pharma Discovery or Reaction Biology Corporation Kinase Profiler). It counts as biochemical. The conditions noted are these: CDK1B; for Ki: read-out: CDK inhibition, Ki (μM) CDK1B; for remaining activity at 10 µM: compound at 10 μM, read-out: residual activity (%) at 10 μM CDK1B. In outline: (§1)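 Other CDKs and further kinases were profiled externally by radiometric assay. In-house ADP Glo assays covered CDK4/D1 and CDK6/D3 (RB-CTF substrate, pH 7.5 Tris buffer with MgCl2, DTT, BSA) and CDK9/T1 (RBER-IRStide substrate), 40 min at 37° C.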

Assay [2] addresses T2, CDKs and other kinases (Homo sapiens, UniProt P50613).
T2 construct: other: CDK7H; residual activity (%) at 10 μM CDK7H; compound at 10 μM
The description is as above. The conditions noted are these: CDK7H; for Ki: read-out: CDK inhibition, Ki (μM) CDK7H; for remaining activity at 10 µM: compound at 10 μM, read-out: residual activity (%) at 10 μM CDK7H. The format is biochemical. In outline: as §1

The target of assay [3] is T3, CDKs and other kinases (Homo sapiens, UniProt P24941).
T3 construct: other: CDK2A; residual activity (%) at 10 μM CDK2A; compound at 10 μM
The assay is described as above. It counts as biochemical. The conditions noted are these: CDK2A; for Ki: read-out: CDK inhibition, Ki (μM) CDK2A; for remaining activity at 10 µM: compound at 10 μM, read-out: residual activity (%) at 10 μM CDK2A. An outline of the steps:
as §1

In another assay the target is CDK6/D3 (Homo sapiens, UniProt Q00534). The assay can be described thus: ADP Glo Kinase assay CDK6/D3. The format is biochemical. The conditions noted are these: CDK6D3; compound at 10 μM; read-out: residual activity (%) at 10 μM CDK6D3. An outline of the steps:
as §1
A general note: In ADP-Glo the light output rises with the ADP produced.

Another assay concerns the target CDK9/T1 (Homo sapiens, UniProt P50750). Nature of the assay: ADP Glo Kinase assay CDK9/T1. The format is biochemical. The conditions noted are these: CDK9T1; read-out: CDK inhibition, Ki (μM) CDK9T1. An outline of the steps:
as §1

The target in a further assay is CDK4/D1 (Homo sapiens, UniProt P11802). Nature of the assay: ADP Glo Kinase assay CDK4/D1. The format is biochemical. The settings on record: CDK4D1; compound at 10 μM; read-out: residual activity (%) at 10 μM CDK4D1. In outline:
as §1

Sequence of CDK4/D1 (P11802 whole entry): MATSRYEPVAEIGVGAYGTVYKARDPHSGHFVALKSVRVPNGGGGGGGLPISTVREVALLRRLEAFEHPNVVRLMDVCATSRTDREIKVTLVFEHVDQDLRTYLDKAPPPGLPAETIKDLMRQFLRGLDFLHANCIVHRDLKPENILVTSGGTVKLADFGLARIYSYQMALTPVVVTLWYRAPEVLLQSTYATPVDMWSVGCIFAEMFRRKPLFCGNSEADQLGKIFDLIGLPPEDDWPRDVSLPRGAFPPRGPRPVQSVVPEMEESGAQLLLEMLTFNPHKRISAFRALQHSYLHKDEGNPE
Sequence of CDK4/D1 (P24385 whole entry partner): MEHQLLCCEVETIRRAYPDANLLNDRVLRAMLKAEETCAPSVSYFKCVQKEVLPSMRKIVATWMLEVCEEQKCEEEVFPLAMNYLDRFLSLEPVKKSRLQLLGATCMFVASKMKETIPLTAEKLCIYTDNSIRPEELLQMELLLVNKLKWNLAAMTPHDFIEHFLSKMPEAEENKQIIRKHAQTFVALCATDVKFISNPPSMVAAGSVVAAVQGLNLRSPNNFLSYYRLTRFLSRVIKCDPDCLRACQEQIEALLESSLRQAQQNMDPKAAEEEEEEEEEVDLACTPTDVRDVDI
Sequence of CDK6/D3 (Q00534 whole entry): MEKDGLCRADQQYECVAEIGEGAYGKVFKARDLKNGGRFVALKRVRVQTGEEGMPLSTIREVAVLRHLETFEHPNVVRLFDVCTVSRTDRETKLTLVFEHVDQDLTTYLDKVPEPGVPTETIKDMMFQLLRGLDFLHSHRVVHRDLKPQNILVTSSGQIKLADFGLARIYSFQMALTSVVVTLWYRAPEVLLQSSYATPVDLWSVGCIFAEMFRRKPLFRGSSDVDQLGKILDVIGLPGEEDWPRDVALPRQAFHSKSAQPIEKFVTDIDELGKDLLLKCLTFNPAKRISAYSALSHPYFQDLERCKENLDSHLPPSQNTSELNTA
Sequence of CDK6/D3 (P30281 whole entry partner): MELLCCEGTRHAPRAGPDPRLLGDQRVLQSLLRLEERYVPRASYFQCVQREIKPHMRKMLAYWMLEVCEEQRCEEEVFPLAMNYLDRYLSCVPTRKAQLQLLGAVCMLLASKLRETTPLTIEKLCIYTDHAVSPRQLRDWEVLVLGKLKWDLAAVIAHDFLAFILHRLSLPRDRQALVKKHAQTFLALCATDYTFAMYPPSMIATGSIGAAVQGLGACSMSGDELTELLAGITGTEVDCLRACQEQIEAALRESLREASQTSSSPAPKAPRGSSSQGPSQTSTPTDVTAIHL
T1 sequence (P06493 whole entry): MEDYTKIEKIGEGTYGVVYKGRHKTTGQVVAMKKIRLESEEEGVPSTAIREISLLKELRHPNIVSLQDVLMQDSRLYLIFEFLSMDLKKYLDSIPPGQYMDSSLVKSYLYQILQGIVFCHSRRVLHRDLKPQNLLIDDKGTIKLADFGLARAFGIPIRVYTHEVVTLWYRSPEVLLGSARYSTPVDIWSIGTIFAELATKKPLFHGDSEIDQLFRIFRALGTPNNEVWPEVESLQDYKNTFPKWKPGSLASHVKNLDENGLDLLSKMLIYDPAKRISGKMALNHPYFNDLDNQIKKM
Sequence of CDK9/T1 (P50750 whole entry): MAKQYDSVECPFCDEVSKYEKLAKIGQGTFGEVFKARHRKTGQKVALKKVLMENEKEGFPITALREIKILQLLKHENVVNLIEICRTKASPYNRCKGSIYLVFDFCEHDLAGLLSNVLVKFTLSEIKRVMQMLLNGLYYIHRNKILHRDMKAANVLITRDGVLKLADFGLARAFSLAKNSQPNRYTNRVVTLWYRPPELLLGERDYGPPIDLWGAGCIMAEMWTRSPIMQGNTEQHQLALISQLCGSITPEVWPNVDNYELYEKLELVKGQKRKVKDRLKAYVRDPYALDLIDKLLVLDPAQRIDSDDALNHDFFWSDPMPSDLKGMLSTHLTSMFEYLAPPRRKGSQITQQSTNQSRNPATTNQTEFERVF
Sequence of CDK9/T1 (O60563 whole entry partner): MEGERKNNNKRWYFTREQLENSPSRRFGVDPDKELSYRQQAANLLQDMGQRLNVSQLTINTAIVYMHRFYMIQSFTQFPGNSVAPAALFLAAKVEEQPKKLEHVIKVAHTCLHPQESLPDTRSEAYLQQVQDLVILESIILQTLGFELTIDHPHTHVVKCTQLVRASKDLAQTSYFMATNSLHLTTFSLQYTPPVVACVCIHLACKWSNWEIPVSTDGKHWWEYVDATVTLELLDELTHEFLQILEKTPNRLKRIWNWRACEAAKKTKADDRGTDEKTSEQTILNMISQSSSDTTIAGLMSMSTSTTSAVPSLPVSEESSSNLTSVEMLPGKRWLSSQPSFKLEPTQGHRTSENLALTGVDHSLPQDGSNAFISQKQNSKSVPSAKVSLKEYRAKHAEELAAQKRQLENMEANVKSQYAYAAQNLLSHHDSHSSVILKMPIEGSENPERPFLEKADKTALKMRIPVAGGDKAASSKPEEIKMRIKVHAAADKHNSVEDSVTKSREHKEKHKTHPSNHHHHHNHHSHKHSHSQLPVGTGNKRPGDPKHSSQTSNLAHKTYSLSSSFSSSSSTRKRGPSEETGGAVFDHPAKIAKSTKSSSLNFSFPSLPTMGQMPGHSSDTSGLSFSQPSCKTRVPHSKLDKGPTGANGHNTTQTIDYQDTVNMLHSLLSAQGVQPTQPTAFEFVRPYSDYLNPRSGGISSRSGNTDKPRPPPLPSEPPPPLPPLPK
T2 sequence (P50613 whole entry): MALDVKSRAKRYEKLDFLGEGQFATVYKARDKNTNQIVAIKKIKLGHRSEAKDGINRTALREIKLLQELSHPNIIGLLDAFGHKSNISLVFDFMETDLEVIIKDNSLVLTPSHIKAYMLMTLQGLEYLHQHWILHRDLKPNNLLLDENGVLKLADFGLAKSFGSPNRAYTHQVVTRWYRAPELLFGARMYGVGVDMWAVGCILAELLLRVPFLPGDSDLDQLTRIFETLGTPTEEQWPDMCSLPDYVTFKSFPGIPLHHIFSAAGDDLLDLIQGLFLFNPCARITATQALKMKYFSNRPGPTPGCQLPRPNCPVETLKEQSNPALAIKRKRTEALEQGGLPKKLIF

The term GI50 denotes the concentration at which growth is held to half of that of the control. In general, Ki refers to a dissociation constant, usually derived from enzyme kinetics or from competition with a known ligand. With `Cc1cnc(N[C@H]2CC[C@H](N)CC2)nc1-c1cnc2ccc(-c3ccncc3)cn12` [Compound 37, (1r,4r)-N^1-(5-Methyl-4-(6-(pyridin-4-yl)imidazo[1,2-a]pyridin-3-yl)pyrimidin-2-yl)cyclohexane-1,4-diamine], the 50% growth inhibitory concentration (GI50) with leukemia cell lines is 0.013 ± 0.002 µM. Besides, the Ki at CDKs and other kinases [1] was 0.17 µM; at CDKs and other kinases [2] it was 1.18 µM; at CDKs and other kinases [3], 0.044 µM; at CDK9/T1, 0.12 µM. Moreover, the figures for the remaining activity at 10 µM at CDK6/D3 and at CDK4/D1 were 96% and 7%, respectively.

`N[C@H]1CC[C@H](Nc2ncc(Cl)c(-c3cnc4ccc(-c5cncnc5)cn34)n2)CC1` [Compound 38, (1r,4r)-N^1-(5-Chloro-4-(6-(pyrimidin-5-yl)imidazo[1,2-a]pyridin-3-yl)pyrimidin-2-yl)cyclohexane-1,4-diamine] gave a GI50 in the assay on leukemia cell lines of 0.052 ± 0.011 µM. Besides, the Ki on CDKs and other kinases [1] is 2.56 µM; on CDKs and other kinases [2], 0.58 µM; on CDKs and other kinases [3] it was 0.91 µM; on CDK9/T1, 0.065 µM. Further, the remaining activity at 10 µM is 80% on CDK6/D3 and 0% on CDK4/D1.

As for `Cc1cnc(N[C@H]2CC[C@H](N)CC2)nc1-c1cnc2ccc(-c3cncnc3)cn12` [Compound 39, (1r,4r)-N^1-(5-Methyl-4-(6-(pyrimidin-5-yl)imidazo[1,2-a]pyridin-3-yl)pyrimidin-2-yl)cyclohexane-1,4-diamine], in the assay with leukemia cell lines, growth was halved (GI50) at 0.082 ± 0.02 µM. Besides, the Ki on CDKs and other kinases [1] is 7.36 µM; on CDKs and other kinases [2], 5.6 µM; at CDKs and other kinases [3], 4.74 µM; on CDK9/T1, 0.165 µM. Moreover, the figures for the remaining activity at 10 µM on CDK6/D3 and at CDK4/D1 were 100% and 36%, respectively.

In turn, `N[C@H]1CC[C@H](Nc2ncc(Cl)c(-c3cnc4ccc(-c5ncccc5F)cn34)n2)CC1` [Compound 40, (1r,4r)-N^1-(5-Chloro-4-(6-(3-fluoropyridin-2-yl)imidazo [1,2-a]pyridin-3-yl)pyrimidin-2-yl)cyclohexane-1,4-diamine] yielded a GI50 in the assay with leukemia cell lines of 0.005 ± 0.001 µM. Further, the Ki at CDKs and other kinases [1] came to 0.88 µM; at CDKs and other kinases [2], 0.038 µM; at CDKs and other kinases [3], 0.73 µM; at CDK9/T1, 0.014 µM. Further, the remaining activity at 10 µM at CDK6/D3 is 72%; at CDK4/D1, 30%.

With `N[C@H]1CC[C@H](Nc2ncc(Cl)c(-c3cnc4ccc(NCc5ccc(F)cc5)cn34)n2)CC1` [Compound 41, (1r,4r)-N^1-(5-Chloro-4-(6-((4-fluorobenzyl)amino)imidazo[1,2-a]pyridin-3-yl)pyrimidin-2-yl)cyclohexane-1,4-diamine], growth in the assay with leukemia cell lines was halved (GI50) at 0.013 ± 0.002 µM. Further, the Ki at CDKs and other kinases [1] was 2.66 µM; at CDKs and other kinases [2] it was 0.958 µM; on CDKs and other kinases [3] it was 0.059 µM; on CDK9/T1, 0.045 µM. In addition, the results for the remaining activity at 10 µM at CDK6/D3 and at CDK4/D1 were 55% and 40%, respectively.

In the assay on leukemia cell lines, `N[C@H]1CC[C@H](Nc2ncc(Cl)c(-c3cnc4ccccn34)n2)CC1` [Compound 42, (1r,4r)-N^1-(5-chloro-4-(imidazo[1,2-a]pyridin-3-yl)pyrimidin-2-yl)cyclohexane-1,4-diamine] displayed a concentration for 50% growth inhibition (GI50) of 0.007 ± 0.001 µM. Also, the Ki at CDKs and other kinases [1] is 0.46 µM; on CDKs and other kinases [2], 0.024 µM; at CDKs and other kinases [3], 0.046 µM; on CDK9/T1 it was 0.061 µM. The figures for the remaining activity at 10 µM at CDK6/D3 and at CDK4/D1 were 45% and 0%, respectively.

The compound `N[C@H]1CC[C@H](Nc2ncc(F)c(-c3cnc4cc(Cl)ccn34)n2)CC1` [Compound 43, (1r,4r)-N^1-(4-(7-Chloroimidazo[1,2-a]pyridin-3-yl)-5-fluoropyrimidin-2-yl)cyclohexane-1,4-diamine] yielded a GI50 in the assay with leukemia cell lines of 0.004 ± 0.001 µM. In addition, the remaining activity at 10 µM was 4% on CDKs and other kinases [1]; 3% on CDKs and other kinases [2]; 1% on CDKs and other kinases [3]; 2% on CDK6/D3; 0% at CDK4/D1. Also, on CDK9/T1, the Ki amounted to 0.008 µM.

For the compound `N[C@H]1CC[C@H](Nc2ncc(F)c(-c3cnc4cc(-c5ccccc5)ccn34)n2)CC1` [Compound 44, (1r,4r)-N^1-(5-Fluoro-4-(7-phenylimidazo[1,2-a]pyridin-3-yl)pyrimidin-2-yl)cyclohexane-1,4-diamine], in the assay on leukemia cell lines, the GI50 is < 0.001 µM. Further, the remaining activity at 10 µM on CDKs and other kinases [1] turned out to be 0%; on CDKs and other kinases [2] it was 2%; at CDKs and other kinases [3], 0%; at CDK6/D3 it was 1%; on CDK4/D1, 2%. For the same compound, at CDK9/T1, the inhibition constant Ki is 0.007 µM.

Regarding `N[C@H]1CC[C@H](Nc2ncc(F)c(-c3cnc4cc(-c5cccnc5)ccn34)n2)CC1` [Compound 45, (1r,4r)-N^1-(5-Fluoro-4-(7-(pyridin-3-yl)imidazo[1,2-a]pyridin-3-yl)pyrimidin-2-yl)cyclohexane-1,4-diamine], the GI50 with leukemia cell lines was < 0.001 µM. Also, the remaining activity at 10 µM on CDKs and other kinases [1] came to 0%; at CDKs and other kinases [2], 2%; at CDKs and other kinases [3] it was 0%; at CDK6/D3, 0%; at CDK4/D1 it was 5%. On CDK9/T1, the Ki amounted to 0.006 µM.

`N[C@H]1CC[C@H](Nc2ncc(F)c(-c3cnc4cc(Nc5cccnc5)ccn34)n2)CC1` [Compound 46, (1r,4r)-N^1-(5-Fluoro-4-(7-(pyridin-3-ylamino)imidazo [1,2-a]pyridin-3-yl)pyrimidin-2-yl)cyclohexane-1,4-diamine]: the GI50 in the assay on leukemia cell lines is < 0.001 µM. Besides, the remaining activity at 10 µM at CDKs and other kinases [1] was 0%; on CDKs and other kinases [2] it was 3%; at CDKs and other kinases [3] it was 0%; at CDK6/D3 it was 1%; at CDK4/D1, 0%. Also, on CDK9/T1, the Ki amounted to 0.004 µM.

`N[C@H]1CC[C@H](Nc2ncc(F)c(-c3cnc4ccc(-c5ccc(CN6CCOCC6)cc5)cn34)n2)CC1` [Compound 47, (1r,4r)-N^1-(5-Fluoro-4-(6-(4-(morpholinomethyl)phenyl)imidazo[1,2-a]pyridin-3-yl)pyrimidin-2-yl)cyclohexane-1,4-diamine]: growth with leukemia cell lines was halved (GI50) at 0.003 ± 0.001 µM. Besides, the remaining activity at 10 µM amounted to 5% on CDKs and other kinases [1]; 2% at CDKs and other kinases [3]; 16% on CDK6/D3; 4% at CDK4/D1. For the same compound, the Ki at CDKs and other kinases [2] was 0.075 µM; at CDK9/T1, 0.004 µM.

In the assay with leukemia cell lines, `CN(C)S(=O)(=O)c1ccc(-c2ccc3ncc(-c4nc(N[C@H]5CC[C@H](N)CC5)ncc4F)n3c2)cc1` [Compound 48, 4-(3-(2-(((1r,4r)-4-Aminocyclohexyl)amino)-5-fluoropyrimidin-4-yl)imidazo[1,2-a]pyridin-6-yl)-N,N-dimethylbenzenesulfonamide] came in with a GI50 of 0.002 µM. Moreover, the remaining activity at 10 µM on CDKs and other kinases [1] came out at 13%; at CDKs and other kinases [2] it was 8%; on CDKs and other kinases [3], 3%; at CDK6/D3 it was 45%; at CDK4/D1 it was 4%. For the same compound, the Ki at CDK9/T1 came out at 0.004 µM.

Take `N[C@H]1CC[C@H](Nc2ncc(F)c(-c3cnc4ccc(NC(=O)c5ccc(F)cc5)cn34)n2)CC1` [Compound 51, N-(3-(2-(((1r,4r)-4-Aminocyclohexyl)amino)-5-fluoropyrimidin-4-yl)imidazo[1,2-a]pyridin-6-yl)-4-fluorobenzamide]: the GI50 in the assay on leukemia cell lines is 0.001 µM. Also, the remaining activity at 10 µM on CDKs and other kinases [1] was 4%; at CDKs and other kinases [2], 6%; on CDKs and other kinases [3], 4%; on CDK6/D3 it was 22%; at CDK4/D1, 0%. Further, the Ki at CDK9/T1 came to 0.006 µM.

The compound `N[C@H]1CC[C@H](Nc2ncc(F)c(-c3cnc4ccc(NC(=O)Cc5ccccc5)cn34)n2)CC1` [Compound 52, N-(3-(2-(((1r,4r)-4-Aminocyclohexyl)amino)-5-fluoropyrimidin-4-yl)imidazo[1,2-a]pyridin-6-yl)-2-phenylacetamide] showed a GI50 in the assay with leukemia cell lines of 0.008 ± 0.003 µM. The remaining activity at 10 µM is 6% at CDKs and other kinases [1]; 6% at CDKs and other kinases [2]; 7% at CDKs and other kinases [3]; 21% at CDK6/D3; 4% at CDK4/D1. Also, the Ki at CDK9/T1 was 0.013 µM.
